# Laboratory results as given in US20260199493A1 (priority 2021, published 2026).
# Legend:
# [1] = tested on: MBNL1 downstream genes (Atp2a1, Nfix, Clcn1, Mbnl1); conditions: 1 week
# Excerpt: (§1) 9 week old HSA-LR mice and control FVB mice were employed in a 1 week post single dose range study. The HSA-LR mice were divided into 5 groups. […] Tissues were harvested after 7 days. RT-PCR was used to determine alternative splicing for specific genes (Atp2a1, Clcn1, Nfix, MBNL1). LC-mass was used to determine drug level in Quad, gastro, TA, Triceps, diaphragm, heart, kidney, liver, Brain, plasma. RNA-seq was used to determine the transcription level change between a treated disease model, an untreated disease model and wild-type. Fluorescence imaging was used to determine RNA Foci reduction after treatment with the EEV-oligo compound. […] Q-PCR was used to determine the reduction of mRNA level of actin-HSA after treatment.
# (§2) RT-PCR was used to determine alternative splicing for specific genes (Atp2a1, Clcn1, Nfix, MBNL1). LC-mass was used to determine drug level in Quad, gastro, TA, Triceps, diaphragm, heart, kidney, liver, Brain, plasma. RNA-seq was used to determine the transcription level change between a treated disease model, an untreated disease model and wild-type. Fluorescence imaging was used to determine RNA Foci reduction after treatment with the EEV-oligo compound. Myotonia reduction was recorded 7 days after treatment with the EEV-oligo compound. Q-PCR was used to determine the reduction of mRNA level of actin-HSA after treatment.
# HSA mRNA = conditions: HSA-LR mice
# Excerpt: as §2, with “[…] The HSA-LR mice were divided into 5 groups. […] […] RT-PCR” for “RT-PCR”, “Myotonia reduction was recorded 7 days after treatment with the EEV-oligo compound.” left out
# as §2
# nuclear foci (CUG foci) = conditions: DM1 patient-derived muscle cells, 30 μM, 4 days of differentiation
# Procedure: (§3) Patient myoblasts were treated with 30 micromolar of EEV-oligo throughout 4 days of differentiation. Splicing correction was assessed by one-step RT-PCR. HCR—FISH and sequestered MBNL1 protein detection assays were used to detect RNA foci.
# (§4) Patient myoblasts harbor 2600 CTG repeats within the DMPK 3′UTR. […] Splicing correction was assessed by one-step RT-PCR and Labchip analysis. Plotted mean f SD; n=4 HCR—FISH assay for CUG foci detection in place.
# [2] = tested on: DM1 patient-derived muscle cells; conditions: 30 μM, 4 days of differentiation
# Procedure: as §3, §4
# CUG foci = conditions: HSA-LR mouse, 1 week
# Excerpt: as §1
# [3] = Excerpt: as §1
# IRF-5 gene exon skipping = conditions: RAW 264.7 cells, 5 μM
# Procedure: Briefly, 150K cells/well were seeded in a 24 well plate in 0.5 ml DMEM. […] Following the second incubation, the RNA was harvested and RT-PCR was done using primers that detect exon 5 skipping in the IRF-5 gene.
# IRF5 protein = conditions: for efficacy relative to EEV-PMO-IRF5-1 / IRF-5 protein expression compared to cells stimulated with R848 / IRF-5 protein reduction: RAW 264.7 cells; for efficacy relative to EEV-PMO-IRF5-1 / relative potency compared to EEV-PMO-IRF5-1 (IRF5 protein expression): R848 stimulation; for efficacy relative to EEV-PMO-IRF5-1: on average; for IRF-5 protein expression compared to cells stimulated with R848: all tested concentrations; for IRF-5 protein reduction: concentrations as low as 2 μM, vs cells stimulated with R848; for relative potency compared to EEV-PMO-IRF5-1 (IRF5 protein expression): mouse macrophage cells, Western Blot
# [4] = tested on: human dystrophin (DMD) exon 44; test: Exon 44 skipping in DMD patient-derived muscle cells; type: cell-based; conditions: dose-dependent, maximum observed
# Procedure: After 24 hours, the compound-containing growth medium was replaced with DMEM/2% horse serum and incubated for 5 days to promote myoblast fusion and differentiation into myotubes. Cells were washed and harvested for RNA extraction to assess exon 44 skipping, or in RIPA buffer containing protease inhibitors for protein extraction and Simple Western analysis of dystrophin protein restoration. Dystrophin levels were normalized to HSP90 and expressed relative to untreated healthy samples. Data are expressed as mean±SD, n=3-4. Untreated DMDΔ45 patient derived cells express ~10% spontaneous DMD exon 44 skipping and ~4% dystrophin protein at baseline.
# [5] = tested on: exon 44 of dystrophin mRNA; test: Exon 44 skipping by RT-PCR in NHP; type: in vivo, cynomolgus monkeys
# Procedure: Each testing article was formulated in saline at 4 mg/mL. Bloods and urine were taken at times indicated in Table 18 for further PK analysis. Biopsy at 2 days post injection was performed on biceps. Animals were sacrificed at day 7 post injection and skeletal muscles (quadriceps, diaphragm, biceps, deltoid, tibialis anterior (TiA), smooth muscles (esophagus, aorta, colon) and cardiac muscles (ventricle, atrium) were taken, pulverized, and stored at −80° C. for evaluation of exon skipping and biodistribution in tissues.
# (§5) Exon Skipping Analysis by RT-PCR: hDMD mice and NHP express full-length human dystrophin mRNA. The delivery of AC can alter the splicing and result in a shortened dystrophin mRNA after exon 44 skipping. The tissues were homogenized using 1 mL of RLT lysis buffer (Qiagen, Cat #79216). The detection of splicing correction process was measured by RT-PCR where extracted RNAs from tissues were first reverse-transcribed into cDNA and further analyzed by one step RT-PCR using the following primer set: forward primer 5′-[…]-3′ (SEQ ID NO: 262) and reverse primer 5′-[…]-3′ (SEQ ID NO: 263). […] Quantification of the relative intensity of the bands corresponding to skipped and unskipped transcripts were performed to assess AC-induced exon-44-skipping efficacy. The degree (percentage) of splicing correction detected by RT-PCR was calculated using the following equation: % correction=(intensity of 493 bp fragment band)/(intensity of 493 bp fragment band+intensity of 641 bp fragment band).
# Approximately 20 hours post dose the animal was (bright, alert, and responsive such that the animal was phenotypically “normal”) (BAR) and had zero biscuits left in the cage and was observed eating produce.
# [6] = tested on: exon 44 of human dystrophin mRNA; test: Exon 44 skipping by RT-PCR in hDMD mice; type: in vivo
# Procedure: The hemizygous mice were further genotyped at Transnetyx. All groups were dosed 5 mL/kg per animal by intravenous (iv) injection and sacrificed after 5 days post injection. All animals were euthanized by CO2 asphyxiation followed by terminal blood collection via cardiac puncture. Maximum obtainable volume of whole blood was collected into lithium heparin tubes and processed to plasma. A portion of plasma was analyzed for clinical chemistries by the Testing Facility (IDEXX) and the rest stored frozen at nominally −70° C. […] Animals were age matched and assigned into eight (8) treatment groups according to Table 15. […] All animals survived until their scheduled euthanasia time. Tissues were collected per protocol. The amount of AC and a cCPP-AC in various tissue samples was quantified by LC-MS. Exon skipping in different tissues were analyzed by RT-PCR and the quantification of exon 44 correction.
# as §5
# GYS1 = conditions: GAA knockout mice, single IV dose, one-week post-injection
# [7] = in vivo
# Excerpt: as §1, §2
# [8] = tested on: Human Primary Renal Proximal Tubular Epithelial Cells (RPTECs); conditions: 24 hours
# [9] = HSA-LR mice, 15, 30, 60, 90 mpk IV
substance,measurement,setting,value
Ac-PKKKRKV-AEEA-K(cyclo[FGFGRGRQ])-PEG12-OH [EEV-PMO-DM1-3],"correction of MBNL1 downstream genes, gastrocnemius",[1]; [9],dose dependent correction
same,"correction of MBNL1 downstream genes, quadriceps",[1]; [9],dose dependent correction
same,"correction of MBNL1 downstream genes, tibialis anterior",[1]; [9],dose dependent correction
same,"correction of MBNL1 downstream genes, triceps",[1]; [9],dose dependent correction
same,"mis-splicing in gastrocnemius, triceps, tibialis anterior and quadricep","[1]; HSA-LR mice, 60 mpk oligo, 80 mpk whole drug",fully correct mis-splicing
same,HSA mRNA knockdown,"HSA mRNA; 80 mpk IV, 1-week and 4-week post-injection",HSA mRNA knockdown trend
same,HSA mRNA knockdown in skeletal muscles,"HSA mRNA; quadriceps, gastrocnemius, triceps, tibialis anterior, 1 week",50-70%
same,nuclear foci,nuclear foci (CUG foci),reduction in nuclear foci
same,biomarker splicing correction,[2],significant biomarker splicing correction
same,CUG foci in TA muscle,CUG foci,reduces CUG foci
same,myotonia,"[3]; HSA-LR mice, 15, 30, 60 and 90 mpk, 7 days",dose dependent myotonia reduction
same,hindlimb myotonia,"[3]; HSA-LR mice, single dose 90 mg/kg, 1 week",did not exhibit obvious signs of hindlimb myotonia after induction
Ac-PKKKRKV-AEEA-K(cyclo[FGFGRRRQ])-PEG12-OH [EEV-PMO-IRF5-3],exon skipping compared to EEV-PMO-IRF5-1,IRF-5 gene exon skipping,higher exon skipping
same,efficacy relative to EEV-PMO-IRF5-1,IRF5 protein,5 fold
same,IRF-5 protein expression compared to cells stimulated with R848,IRF5 protein,significant reduction in IRF-5 protein expression
same,IRF-5 protein reduction,IRF5 protein,about 80%
same,relative potency compared to EEV-PMO-IRF5-1 (IRF5 protein expression),IRF5 protein,significant improvement in relative potency
Ac-PKKKRKV-AEEA-K(cyclo[FGFRRRRQ])-PEG12-OH [EEV-PMO-IRF5-4],exon skipping compared to EEV-PMO-IRF5-1,IRF-5 gene exon skipping,higher exon skipping
same,efficacy relative to EEV-PMO-IRF5-1,IRF5 protein,5 fold
same,IRF-5 protein expression compared to cells stimulated with R848,IRF5 protein,significant reduction in IRF-5 protein expression
same,IRF-5 protein reduction,IRF5 protein,about 80%
same,relative potency compared to EEV-PMO-IRF5-1 (IRF5 protein expression),IRF5 protein,significant improvement in relative potency
Ac-PKKKRKV-AEEA-K(cyclo[FfΦGrGrQ])-PEG12-OH [EEV-PMO-IRF5-2],exon skipping compared to EEV-PMO-IRF5-1,IRF-5 gene exon skipping,higher exon skipping
same,efficacy relative to EEV-PMO-IRF5-1,IRF5 protein,5 fold
same,IRF-5 protein expression compared to cells stimulated with R848,IRF5 protein,significant reduction in IRF-5 protein expression
same,IRF-5 protein reduction,IRF5 protein,about 80%
same,relative potency compared to EEV-PMO-IRF5-1 (IRF5 protein expression),IRF5 protein,significant improvement in relative potency
Ac-PKKKRKV-AEEA-Lys-(cyclo[FGFGRGRQ])-PEG12-OH [EEV-PMO-DMD44-1],exon 44 skipping,[4],up to 100%
same,exon 44 skipping across different muscle groups,"[5]; 30 mg/kg, 1 hour IV infusion, 7 days",robust exon 44 skipping
same,exon skipping in all skeletal muscles,"[5]; 40 mpk IV, 7-d post injection",more than 78%
same,"exon skipping, atrium","[5]; 40 mpk IV, 7-d post injection",23.4%
same,"exon skipping, diaphragm","[5]; 40 mpk IV, 7-d post injection",98.4%
same,"exon skipping, esophagus","[5]; 40 mpk IV, 7-d post injection",57.1%
same,"exon skipping, ventricle","[5]; 40 mpk IV, 7-d post injection",31.9%
same,exon skipping,"[6]; hDMD mice, 10 mpk IV, 5 days, Diaphragm",6%
same,exon skipping,"[6]; hDMD mice, 10 mpk IV, 5 days, TiA",12%
same,exon skipping,"[6]; hDMD mice, 10 mpk IV, 5 days, Triceps",6%
same,exon skipping,"[6]; hDMD mice, 10 mpk IV, 5 days, heart",0%
same,exon skipping,"[6]; hDMD mice, 20 mpk IV, 5 days, Diaphragm",33%
same,exon skipping,"[6]; hDMD mice, 20 mpk IV, 5 days, TiA",36%
same,exon skipping,"[6]; hDMD mice, 20 mpk IV, 5 days, Triceps",22
same,exon skipping,"[6]; hDMD mice, 20 mpk IV, 5 days, heart",0%
same,exon skipping,"[6]; hDMD mice, 40 mpk IV, 5 days, Diaphragm",82%
same,exon skipping,"[6]; hDMD mice, 40 mpk IV, 5 days, TiA",99%
same,exon skipping,"[6]; hDMD mice, 40 mpk IV, 5 days, Triceps",94%
same,exon skipping,"[6]; hDMD mice, 40 mpk IV, 5 days, heart",20%
same,exon skipping,"[6]; hDMD mice, 80 mpk IV, 5 days, Diaphragm",98%
same,exon skipping,"[6]; hDMD mice, 80 mpk IV, 5 days, TiA",99%
same,exon skipping,"[6]; hDMD mice, 80 mpk IV, 5 days, Triceps",97%
same,exon skipping,"[6]; hDMD mice, 80 mpk IV, 5 days, heart",79%
same,minimum efficacious dose in the heart,"[6]; hDMD mice, IV, 5 days",40 mpk
same,exon skipping,"[6]; mouse, in vivo",up to 100%
Ac-PKKKRKV-PEG2-K(cyclo[Ff-Φ-Cit-r-Cit-rQ1)-PEG12-K(N3)-NH2 [EEV-PMO-GYS1-1],GYS1 expression in the diaphragm and cardiac muscle,GYS1,significant knockdown
Ac-PKKKRKV-PEG2-K(cyclo[Ff-Φ-GrGrQ])-PEG2-K(N3)-NH2 [EEV-PMO-GYS1-2],GYS1 expression in the diaphragm and cardiac muscle,GYS1,significant knockdown
CAGCAGCAGCAGCAGCAGCAG [PMO-DM1],metabolite of EEV-PMO-DM1-3,[7],major metabolite detected in vivo
same,toxicity (viability): no toxicity at highest concentration tested,[8],> 817 µM
